In patent US9884868B2, “TGF-beta inhibitors” (Rigel Pharmaceuticals, Inc., priority 2015, dated 2018):

Key:
[1] = molecular target: HIS-TGF-βR1 T204D (Homo sapiens (Human), UniProt P36897, T204D); assay: HTRF probe displacement assay with HIS-TGF-βR1 T204D; details: read-out: TGFbr1 IC50; HTRF probe displacement, 1 nM HIS-TGF-βR1 T204D, 1 hour at room temperature
[2] = molecular target: HIS-TGF-βR2 WT (Homo sapiens (Human), UniProt P37173); assay: HTRF probe displacement assay with HIS-TGF-βR2 WT; details: read-out: TGFBr2 IC50; HTRF probe displacement, 1 nM HIS-TGF-βR2 WT, 1 hour at room temperature
Chain of HIS-TGF-βR2 WT (P37173 23-567): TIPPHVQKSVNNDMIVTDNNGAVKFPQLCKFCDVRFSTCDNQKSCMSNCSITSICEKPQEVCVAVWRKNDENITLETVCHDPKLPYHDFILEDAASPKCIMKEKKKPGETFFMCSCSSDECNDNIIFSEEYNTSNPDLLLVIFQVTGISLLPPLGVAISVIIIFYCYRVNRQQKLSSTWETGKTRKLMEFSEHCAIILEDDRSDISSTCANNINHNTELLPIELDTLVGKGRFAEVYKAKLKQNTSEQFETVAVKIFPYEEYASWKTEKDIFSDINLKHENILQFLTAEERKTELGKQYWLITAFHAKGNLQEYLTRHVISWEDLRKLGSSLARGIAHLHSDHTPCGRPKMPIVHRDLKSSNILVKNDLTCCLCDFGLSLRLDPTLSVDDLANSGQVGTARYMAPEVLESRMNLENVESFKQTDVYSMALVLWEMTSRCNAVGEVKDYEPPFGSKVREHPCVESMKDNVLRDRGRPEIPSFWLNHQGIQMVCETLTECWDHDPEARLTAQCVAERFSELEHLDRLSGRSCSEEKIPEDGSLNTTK

Chain of HIS-TGF-βR1 T204D (P36897 34-503 T204D): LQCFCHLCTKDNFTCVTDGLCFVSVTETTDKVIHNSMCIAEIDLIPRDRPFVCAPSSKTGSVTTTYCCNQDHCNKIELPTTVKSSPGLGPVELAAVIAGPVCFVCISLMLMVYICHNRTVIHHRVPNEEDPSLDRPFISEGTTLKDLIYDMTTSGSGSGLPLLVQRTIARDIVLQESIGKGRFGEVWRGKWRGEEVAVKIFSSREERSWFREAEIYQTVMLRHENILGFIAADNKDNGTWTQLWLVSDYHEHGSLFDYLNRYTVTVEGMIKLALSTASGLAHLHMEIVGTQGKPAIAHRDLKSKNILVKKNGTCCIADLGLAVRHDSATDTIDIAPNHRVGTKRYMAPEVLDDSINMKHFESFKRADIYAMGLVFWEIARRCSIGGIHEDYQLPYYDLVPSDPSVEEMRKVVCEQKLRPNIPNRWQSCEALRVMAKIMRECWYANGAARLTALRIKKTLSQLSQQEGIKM

IC50 [1] [nM] | IC50 [2] [nM] | Compound
3 | > 15000 | CN(C)C(=O)c1cnc2ccc(-c3c(-c4ccc(F)cc4)ncn3CC(F)F)nn12 [207′, 6-(1-(2,2-difluoroethyl)-4-(4-fluorophenyl)-1H-imidazol-5-yl)-N,N-dimethylimidazo[1,2-b]pyridazine-3-carboxamide]
11.9 | > 15000 | CC(=O)NCc1cnc2ccc(-c3c(-c4ccc(F)cc4)ncn3CC(F)F)nn12 [Example 197′, N-((6-(1-(2,2-difluoroethyl)-4-(4-fluorophenyl)-1H-imidazol-5-yl)imidazo[1,2-b]pyridazin-3-yl)methyl)acetamide]
5.2 | > 15000 | CC(C)(O)CCn1cnc(-c2ccc(F)c(Cl)c2)c1-c1ccc2ncc(C(N)=O)n2n1 [139′, 6-(4-(3-chloro-4-fluorophenyl)-1-(3-hydroxy-3-methylbutyl)-1H-imidazol-5-yl)imidazo[1,2-b]pyridazine-3-carboxamide]
7.7 | > 15000 | CS(=O)(=O)Nc1cccc(-c2ncn(CC(F)F)c2-c2ccc3ncc(C#N)n3n2)c1 [252′, N-(3-(5-(3-cyanoimidazo[1,2-b]pyridazin-6-yl)-1-(2,2-difluoroethyl)-1H-imidazol-4-yl)phenyl)methanesulfonamide]
1.2 | > 15000 | O=C(NC1CC1)c1cnc2ccc(-c3c(-c4ccc(F)cc4)ncn3CC(F)F)nn12 [208′, N-cyclopropyl-6-(1-(2,2-difluoroethyl)-4-(4-fluorophenyl)-1H-imidazol-5-yl)imidazo[1,2-b]pyridazine-3-carboxamide]
 | > 15000 | CC(=O)N1CCn2c(nc(-c3ccc(F)cc3)c2-c2ccc3ncc(C(N)=O)n3c2)C1 [292′, 6-(7-acetyl-2-(4-fluorophenyl)-5,6,7,8-tetrahydroimidazo[1,2-a]pyrazin-3-yl)imidazo[1,2-a]pyridine-3-carboxamide]
376 | > 15000 | Fc1ccc(-c2ncn(CC(F)F)c2-c2ccc3ncc(N4CCOCC4)n3c2)cc1 [Example 289′, 4-(6-(1-(2,2-difluoroethyl)-4-(4-fluorophenyl)-1H-imidazol-5-yl)imidazo[1,2-a]pyridin-3-yl)morpholine]
 | > 15000 | N#Cc1cnc2ccc(-c3c(-c4ccc(F)cc4C(F)(F)F)ncn3CC(F)F)nn12 [261′, 6-(1-(2,2-difluoroethyl)-4-(4-fluoro-2-(trifluoromethyl)phenyl)-1H-imidazol-5-yl)imidazo[1,2-b]pyridazine-3-carbonitrile]
7 | > 15000 | CCOC(=O)c1cnc2ccc(-c3c(-c4ccc(F)cc4)ncn3CC(F)F)cn12 [274C′, ethyl 6-(1-(2,2-difluoroethyl)-4-(4-fluorophenyl)-1H-imidazol-5-yl)imidazo[1,2-a]pyridine-3-carboxylate]
5 | > 15000 | CC(C)OC(=O)NCc1cnc2ccc(-c3c(-c4ccc(F)cc4)ncn3CC(F)F)nn12 [Example 201′, isopropyl ((6-(1-(2,2-difluoroethyl)-4-(4-fluorophenyl)-1H-imidazol-5-yl)imidazo[1,2-b]pyridazin-3-yl)methyl)carbamate]
752 | > 15000 | CS(=O)(=O)c1cccc(-c2ncn(CC(F)F)c2-c2ccc3ncc(C#N)n3n2)c1 [254′, 6-(1-(2,2-difluoroethyl)-4-(3-(methylsulfonyl)phenyl)-1H-imidazol-5-yl)imidazo[1,2-b]pyridazine-3-carbonitrile]
2.1 | > 15000 | COCC(C1CC1)n1cnc(-c2ccc(F)cc2)c1-c1ccc2ncc(C(N)=O)n2n1 (centres unmarked) [130′, 6-(1-(1-cyclopropyl-2-methoxyethyl)-4-(4-fluorophenyl)-1H-imidazol-5-yl)imidazo[1,2-b]pyridazine-3-carboxamide]
988 | > 15000 | Fc1ccc(-c2ncn(CC(F)F)c2-c2ccc3ncc(CNC4CC(F)(F)C4)n3c2)cc1 [276′, N-((6-(1-(2,2-difluoroethyl)-4-(4-fluorophenyl)-1H-imidazol-5-yl)imidazo[1,2-a]pyridin-3-yl)methyl)-3,3-difluorocyclobutanamine]
2.3 | > 15000 | OC(c1cnc2ccc(-c3c(-c4ccc(F)cc4)ncn3CC(F)F)nn12)C(F)(F)F (centres unmarked) [Example 213′, 1-(6-(1-(2,2-difluoroethyl)-4-(4-fluorophenyl)-1H-imidazol-5-yl)imidazo[1,2-b]pyridazin-3-yl)-2,2,2-trifluoroethanol]
1.4 | > 15000 | NC(=O)c1cnc2ccc(-c3c(-c4ccc(F)c(Cl)c4)ncn3C3CC(F)(F)C3)nn12 [118′, 6-(4-(3-chloro-4-fluorophenyl)-1-(3,3-difluorocyclobutyl)-1H-imidazol-5-yl)imidazo[1,2-b]pyridazine-3-carboxamide]
1200 | > 15000 | N#Cc1cnc2ccc(-c3c(-c4ccc(F)cc4)ncn3[C@]34CC5CC(C[C@](O)(C5)C3)C4)nn12 (single isomer, unassigned) [269′]
1 | > 15000 | N#Cc1cnc2ccc(-c3c(-c4ccc(F)cc4)ncn3[C@@H](CO)CC(F)(F)F)nn12 [28′, (R)-6-(4-(4-fluorophenyl)-1-(4,4,4-trifluoro-1-hydroxybutan-2-yl)-1H-imidazol-5-yl)imidazo[1,2-b]pyridazine-3-carbonitrile]
 | > 15000 | N#Cc1cnc2ccc(-c3c(-c4cccc(-c5ccccc5)c4)ncn3CC(F)F)nn12 [257′, 6-(4-([1,1′-biphenyl]-3-yl)-1-(2,2-difluoroethyl)-1H-imidazol-5-yl)imidazo[1,2-b]pyridazine-3-carbonitrile]

IC50 [1] [nM] | IC50 [2] [nM] | Compound
71.6 |  | CC(C)Cn1cnc(-c2ccc(F)cc2)c1-c1ccc2ncc(C#N)n2c1 [82′, 6-(4-(4-fluorophenyl)-1-isobutyl-1H-imidazol-5-yl)imidazo[1,2-a]pyridine-3-carbonitrile]
99.2 |  | CC(C)(C)Cn1cnc(-c2ccc(F)cc2)c1-c1ccc2ncc(C#N)n2n1 [Example 270′, 6-(4-(4-fluorophenyl)-1-neopentyl-1H-imidazol-5-yl)imidazo[1,2-b]pyridazine-3-carbonitrile]
94.7 |  | N#Cc1cnc2ccc(-c3c(-c4ccc(F)cc4)ncn3C3CCCC3)cn12 [86′, 6-(1-cyclopentyl-4-(4-fluorophenyl)-1H-imidazol-5-yl)imidazo[1,2-a]pyridine-3-carbonitrile]
5.7 |  | NC(=O)c1cnc2ccc(-c3c(-c4ccc(F)cc4)ncn3C[C@@H](O)CO)cn12 [164′, (R)-6-(1-(2,3-dihydroxypropyl)-4-(4-fluorophenyl)-1H-imidazol-5-yl)imidazo[1,2-a]pyridine-3-carboxamide]
5.1 |  | N#Cc1cnc2ccc(-c3c(-c4ccc(F)c(Cl)c4)ncn3[C@H]3CCC(F)(F)C3)nn12 [64′, (S)-6-(4-(3-chloro-4-fluorophenyl)-1-(3,3-difluorocyclopentyl)-1H-imidazol-5-yl)imidazo[1,2-b]pyridazine-3-carbonitrile]
1.9 |  | CCOCCn1cnc(-c2ccc(F)cc2)c1-c1ccc2ncc(C(N)=O)n2c1 [178′, 6-(1-(2-ethoxyethyl)-4-(4-fluorophenyl)-1H-imidazol-5-yl)imidazo[1,2-a]pyridine-3-carboxamide]
63.2 |  | Cn1cnc(-c2ccc(F)c(F)c2)c1-c1ccc2cn[nH]c2c1 [Compound 65, 6-(4-(3,4-Difluorophenyl)-1-methyl-1H-imidazol-5-yl)-1H-indazole]
10.5 |  | N#Cc1cnc2ccc(-c3[nH]cnc3-c3ccc(F)cc3)nn12 [18′, 6-(4-(4-fluorophenyl)-1H-imidazol-5-yl)imidazo[1,2-b]pyridazine-3-carbonitrile]
1.9 |  | N#Cc1cnc2ccc(-c3c(-c4ccc(F)cc4)ncn3CC3CCCO3)nn12 (centres unmarked) [31′, 6-(4-(4-fluorophenyl)-1-((tetrahydrofuran-2-yl)methyl)-1H-imidazol-5-yl)imidazo[1,2-b]pyridazine-3-carbonitrile]
2.6 |  | N#Cc1cnc2ccc(-c3c(-c4ccc(F)cc4)ncn3C34CC(C3)C4)nn12 [25′, 6-(1-(bicyclo[1.1.1]pentan-1-yl)-4-(4-fluorophenyl)-1H-imidazol-5-yl)imidazo[1,2-b]pyridazine-3-carbonitrile]
92.6 |  | OCc1cnc2ccc(-c3c(-c4ccc(F)cc4)ncn3CC(F)F)cn12 [274D′, (6-(1-(2,2-difluoroethyl)-4-(4-fluorophenyl)-1H-imidazol-5-yl)imidazo[1,2-a]pyridin-3-yl)methanol]
2.1 |  | N#Cc1cnc2ccc(-c3c(-c4ccc(F)c(Cl)c4)ncn3C3CC(F)(F)C3)nn12 [53′, 6-(4-(3-chloro-4-fluorophenyl)-1-(3,3-difluorocyclobutyl)-1H-imidazol-5-yl)imidazo[1,2-b]pyridazine-3-carbonitrile]
200 |  | N#Cc1cnc2ccc(-c3c(-c4ccc(F)cc4)ncn3CCCO)cn12 [75′, 6-(4-(4-fluorophenyl)-1-(3-hydroxypropyl)-1H-imidazol-5-yl)imidazo[1,2-a]pyridine-3-carbonitrile]
2.2 |  | N#Cc1cnc2ccc(-c3c(-c4cccc(O)c4)ncn3CC(F)F)nn12 [249′, 6-(1-(2,2-difluoroethyl)-4-(3-hydroxyphenyl)-1H-imidazol-5-yl)imidazo[1,2-b]pyridazine-3-carbonitrile]
1.3 |  | NC(=O)c1cnc2ccc(-c3c(-c4ccc(F)c(Cl)c4)ncn3CCF)nn12 [114′, 6-(4-(3-chloro-4-fluorophenyl)-1-(2-fluoroethyl)-1H-imidazol-5-yl)imidazo[1,2-b]pyridazine-3-carboxamide]
0.8 |  | NC(=O)c1cnc2ccc(-c3c(-c4ccc(F)cc4)ncn3CCF)nn12 [111′, 6-(1-(2-fluoroethyl)-4-(4-fluorophenyl)-1H-imidazol-5-yl)imidazo[1,2-b]pyridazine-3-carboxamide]
107 |  | CC(C)(O)Cn1cnc(-c2ccc(F)cc2)c1-c1ccc2ncc(C#N)n2c1 [90′, 6-(4-(4-fluorophenyl)-1-(2-hydroxy-2-methylpropyl)-1H-imidazol-5-yl)imidazo[1,2-a]pyridine-3-carbonitrile]
